Results from patent US20070293560A1, “Compounds and compositions” (priority 2006, published 2007).

Columns and labels:
m-calpain = biological target: T1, m-calpain (Homo sapiens, UniProt P17655); assay: m-calpain inhibition, fluorescence-based assay with BODIPY-casein substrate; format: biochemical
T1 sequence (P17655 1-700): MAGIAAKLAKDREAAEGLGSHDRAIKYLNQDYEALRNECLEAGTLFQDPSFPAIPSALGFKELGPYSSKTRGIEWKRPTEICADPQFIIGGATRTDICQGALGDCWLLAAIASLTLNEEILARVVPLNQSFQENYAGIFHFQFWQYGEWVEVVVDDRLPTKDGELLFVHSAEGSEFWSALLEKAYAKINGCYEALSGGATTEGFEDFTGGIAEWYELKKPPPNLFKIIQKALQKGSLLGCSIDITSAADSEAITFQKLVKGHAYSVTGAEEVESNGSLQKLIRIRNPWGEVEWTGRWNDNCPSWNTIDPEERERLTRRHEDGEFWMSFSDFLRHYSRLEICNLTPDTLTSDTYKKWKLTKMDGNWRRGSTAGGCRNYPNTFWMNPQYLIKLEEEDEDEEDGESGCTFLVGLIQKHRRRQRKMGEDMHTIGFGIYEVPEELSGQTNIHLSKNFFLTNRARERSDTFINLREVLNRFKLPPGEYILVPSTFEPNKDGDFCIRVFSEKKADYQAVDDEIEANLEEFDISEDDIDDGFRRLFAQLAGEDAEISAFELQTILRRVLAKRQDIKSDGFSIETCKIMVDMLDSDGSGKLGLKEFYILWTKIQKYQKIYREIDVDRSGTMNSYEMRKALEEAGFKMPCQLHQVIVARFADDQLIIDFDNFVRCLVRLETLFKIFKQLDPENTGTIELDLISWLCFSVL
T1 sequence (P04632 1-268 partner): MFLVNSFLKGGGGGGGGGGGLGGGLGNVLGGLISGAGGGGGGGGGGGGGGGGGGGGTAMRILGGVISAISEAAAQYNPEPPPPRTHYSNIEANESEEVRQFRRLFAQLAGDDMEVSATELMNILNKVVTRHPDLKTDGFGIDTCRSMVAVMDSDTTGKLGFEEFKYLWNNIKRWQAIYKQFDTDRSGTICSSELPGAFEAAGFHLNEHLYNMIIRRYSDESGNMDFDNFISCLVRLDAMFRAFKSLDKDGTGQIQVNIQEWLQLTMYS
Experimental: The peptidic alcohol 3 and aldehyde 6 were assayed against m-calpain using a BODIPY-casein substrate in the fluorescence-based assay procedure of V. F. Thompson, S. Saldana, J. Cong and D. E. Goll, Anal. Biochem. 2000, 279, 170.
The results of the enzyme inhibition assay for 3 and 6 are graphically represented in FIGS. 1 and 2, respectively.

cataracts = assay: In vivo cataract progression in lambs, ointment on the eye; parameters: species or system lamb; settings: 1% ointment (25 mg) twice daily, 24 lambs
Experimental: An ointment (25 mg) comprising 1% of the peptidic aldehyde 6 was applied twice daily to the left eye of 24 lambs for three months starting when they were two to three months old. The progression of cataracts was determined by a veterinary opthalmologist with a slit-lamp microscope.

[1] = Detection of 6 in ovine body parts by LCMS after ointment application to one eye; format: in vivo, lamb; settings: for Compound 6 detected: 1% ointment 50 mg three times in one day
Experimental: (§1) An ointment (50 mg) comprising 1% of the peptidic aldehyde 6 was applied to one eye of a lamb, three times in one day.
Various body parts were assayed for trace amounts of 6 by LCMS using a method similar to that described by A. Maltese and C. Bucolo, Biomedical Chromatography 2000, 16, 274. A rapid high-performance liquid chromatographic method using a C18 reversed-phase column with UV detection at 254 nm was used for the analysis of 6 in ovine samples. A water solution containing 2% ZnSO4.7H2O was used to deproteinise the samples. The mobile phase consisted of CH3CN and H2O containing 0.05% TFA.

[2] = Ovine cornea penetration, modified Ussing chamber and LCMS; format: in vitro ADME; settings: adult ovine cornea, Ussing chamber, 37° C., 3 hours, LCMS
Experimental: The peptidic aldehyde 6 was assayed for ovine cornea penetration using a modified Ussing chamber and LCMS based on the procedure of Youn Bok Chung, Kun Han and Vincent H. L. Lee, Pharmaceutical Research, 2000, 15, 1882. Compound 6 (3.5 mg) was dissolved in buffer A (5 mL) and added to the epithelial side a modified Ussing chamber with a pre-mounted adult ovine cornea. Buffer B (5 mL) was added to the endothelial side of the chamber and the whole chamber was incubated 37° C. for 3 hours, 5% CO2. Samples were taken from both sides of the chamber at time=0 and 180 minutes. The samples were analysed for compound 6 using LCMS.

[3] = In vivo eye irritation in a lamb after ointment application; settings: 1% ointment (50 mg) applied to one eye of a lamb, three times in one day
Experimental: as §1

adult ovine lens = assay: In vitro lens culture assay, calcium induced cataract; format: cell-based; settings: ovine lens preincubated with 0.8 μM for 2 hours, then 5 mM calcium chloride for 20 hours
Experimental: The ability of the peptidic aldehyde 6 to prevent the formation of a calcium induced cataract in adult ovine lens was assayed using the procedure of J. Sanderson, J. M. Marciantonio and G. A. Duncan, Invest. Opth. Vis. Sci. 2000, 41, 2255. Three pairs of lenses were tested. One lens from each pair was preincubated with [0.8 μM] 6 for 2 hours while the other was incubated in EMEM-culture media at 35° C., 5% CO2. Then 5 mM calcium chloride was added onto both the inhibitor treated lens and the other lens, and both lenses were then incubated for 20 hours. One pair of lenses was photographed when the assay had been completed.

SMILES: CC(C)C[C@@H](CO)NC(=O)[C@@H](NC(=O)c1ccc(C=O)[nH]1)C(C)C [Compound 3, 5-Formyl-1H-pyrrole-2-carboxylic acid [(S)-1-((S)-1-hydroxymethyl-3-methyl-butylcarbamoyl)-2-methyl-propyl]-amide]
- IC50 (m-calpain): 0.97 µM

SMILES: CC(C)C[C@@H](CO)NC(=O)[C@@H](NC(=O)c1ccc(C=O)o1)C(C)C [Compound 4, 5-Formyl-furan-2-carboxylic acid [(S)-1-((S)-1-hydroxymethyl-3-methyl-butylcarbamoyl)-2-methyl-propyl]-amide]
- IC50 (m-calpain): 120 µM

SMILES: CC(C)C[C@@H](CO)NC(=O)[C@@H](NC(=O)c1ccc(C=O)s1)C(C)C [Compound 5, 5-Formyl-thiophene-2-carboxylic acid [(S)-1-((S)-1-hydroxymethyl-3-methyl-butylcarbamoyl)-2-methyl-propyl]-amide]
- IC50 (m-calpain): 30.4 µM

SMILES: CC(C)C[C@@H](C=O)NC(=O)[C@@H](NC(=O)c1ccc(C=O)[nH]1)C(C)C [Compound 6, 5-Formyl-1H-pyrrole-2-carboxylic acid [(S)-1-((S)-1-formyl-3-methyl-butylcarbamoyl)-2-methyl-propyl]-amide]
- IC50 (m-calpain): 0.03 µM
- Cataract progression, treated left eye (cataracts; first month following treatment (p<0.05)): significantly slower cataract progression
- Cataract progression, treated versus untreated eyes (cataracts; following two months): no significant differences
- Amount detected ([1]; Aqueous humour (treated eye)): 8 ng
- Compound 6 detected ([1]; Aqueous humour (treated eye)): yes
- Compound 6 detected ([1]; Kidney): no
- Amount detected ([1]; Lens (treated eye)): 6 ng
- Compound 6 detected ([1]; Lens (treated eye)): yes
- Compound 6 detected ([1]; Liver): no
- Compound 6 detected ([1]; Plasma): no
- Amount detected ([1]; Vitreous humour (treated eye)): 4 ng
- Compound 6 detected ([1]; Vitreous humour (treated eye)): yes
- Cornea penetration [2]: yes
- Eye irritation [3]: No sign of irritation
- Inhibition of cataract formation (adult ovine lens): yes

SMILES: CC(C)C[C@@H](CO)NC(=O)[C@@H](NC(=O)c1ccc(C=O)o1)C(C)C [Compound 7, 5-Formyl-furan-2-carboxylic acid [(S)-1-((S)-1-hydroxymethyl-3-methyl-butylcarbamoyl)-2-methyl-propyl]-amide]
- melting point: 46 to 48 °C
